Test results: a melting point compilation (Tetko et al.; mined from patent text by program, amines drawn as free bases though some values may be those of a salt)

Which melting point does the source give for `Cc1ccc(Oc2ccccc2-n2cncn2)c(O)c1` here?
Its melting point is 132 to 133 °C.

For `CC(C)(C)OC(=O)[C@H](NS(=O)(=O)c1ccc2c(Cl)cnc(Cl)c2c1)C(C)(C)C`, which melting point is on record?
Its melting point is 140 to 142 °C.

Which melting point does the source give for `O=C1CCC(c2ccc3[nH]c(-c4cccnc4)cc3c2)=NN1` here?
Its melting point is 298 to 300 °C.

For `Cc1nc(C(F)(F)F)ccc1/C=C/C(=O)Nc1ccc2[nH]ccc2c1`, which melting point is on record?
The melting point was 231 °C.

For `COc1cc(C)c2nc3cccc(OC)c3nc2c1`, which melting point is on record?
The melting point was 201 to 202 °C.

With `CC(C)(C)OC(=O)[C@H](Cc1ccc(O)cc1)NC(=O)C12CC3CC(C(=O)N1Cc1ccccc1)C2C3` (some centres not stated) as the molecule, how does the melting point read?
Its melting point is 298 to 300 °C.

With `O=c1ccc(C(F)(F)F)cn1-c1ccc(NCCCl)cc1Cl` as the molecule, how does the melting point read?
The melting point was 160 to 162 °C.

With `C=CCOc1cn(C)c2cc(F)ccc2c1=O` as the molecule, how does the melting point read?
The melting point was 158 to 159 °C.

Which melting point does the source give for `Cc1ccc(-c2ccc3c(c2)C=C(C(=O)N[C@H]2CC[C@H](CN(C)C4CCOCC4)CC2)CO3)cc1` here?
Its melting point is 141 to 143 °C.

Which melting point does the source give for `O=C(Nc1ccc(CCl)cc1)C1=Cc2cc(-c3ccccc3)ccc2CC1` here?
The melting point was 176 to 177 °C.

Which melting point does the source give for `CCOC(=O)c1cnc(Nc2ccccc2O)[nH]c1=O` here?
Its melting point is 289 to 291 °C.

For `Cc1ccc(C(=O)Cn2cc(Cl)cnc2=O)c(C)c1`, which melting point is on record?
Its melting point is 221 to 222 °C.

With `CC(C(=O)N(C)C)n1nc(-c2ccccc2)c(Cl)c1Cl` (configuration not stated) as the molecule, how does the melting point read?
The melting point was 102 to 103 °C.

For `CN(C)c1ccc2c(c1)C(=O)CC(c1cccc(O)c1)=N2`, which melting point is on record?
Its melting point is 342 to 344 °C.

For `COC(=O)c1cccc(CC#N)c1[N+](=O)[O-]`, which melting point is on record?
The melting point was 77 to 80 °C.

With `CC(SCc1cc2cc(Cl)ccc2n1S(=O)(=O)c1ccccc1)C(=O)O` (configuration not stated) as the molecule, how does the melting point read?
Its melting point is 138 °C.

For `Cc1cc(C#N)cc(C(=O)c2[nH]c(=O)[nH]c(=O)c2C(C)(C)C)c1`, which melting point is on record?
The melting point was 270 to 271 °C.

Which melting point does the source give for `CCc1nc2c(cnn2CC)c(NC2CCOCC2)c1CNC(=O)c1cc(C)cc(C(=O)NCc2ccc(OC)c(-c3cccc(CC4CCN(C)CC4)c3)c2)c1` here?
Its melting point is 115 to 117 °C.

For `NC(=O)COc1ccccc1C(=O)Nc1ccc(C(=O)N2CCCCc3ccccc32)cc1`, which melting point is on record?
The melting point was 198 to 199 °C.

Which melting point does the source give for `CC1=C(OCC(C)C)CC(C)(C)C1=O` here?
The melting point was 63 °C.

Which melting point does the source give for `CCOC(=O)c1c(O)c2cccnc2n(CCc2ccccc2)c1=O` here?
Its melting point is 121 to 123 °C.

With `COc1ccc(SC(C(=O)NO)C(C)C)cc1` (configuration not stated) as the molecule, how does the melting point read?
Its melting point is 119 °C.

Which melting point does the source give for `Cc1coc(Cc2ccc(N)cc2)n1` here?
Its melting point is 84 to 85 °C.

For `Oc1ccccc1C=Cc1cccc2[nH]ccc12`, which melting point is on record?
Its melting point is 140 °C.

With `CC(CN(C(C)C)C(C)C)N1C(=O)C(=O)c2ccccc21` (configuration not stated) as the molecule, how does the melting point read?
Its melting point is 70 to 71 °C.

For `N#Cc1cc(C#N)cc(OC(C(=O)C2CC2)C(=O)C2CC2)c1`, which melting point is on record?
The melting point was 135 to 137 °C.

With `CCC(C)(C)c1cc(C(=O)CI)cc(C(C)(C)CC)c1O` as the molecule, how does the melting point read?
The melting point was 76 to 77 °C.

For `COc1cc(O)c(CC=C(C)C)c(O)c1C(=O)C=Cc1ccc(O)cc1`, which melting point is on record?
The melting point was 172 °C.

Which melting point does the source give for `CN(C)CC=NC(=O)c1cnn2c(-c3cccnc3)ccnc12` here?
The melting point was 124 to 127 °C.

Which melting point does the source give for `COc1c(Cl)ccc(Cl)c1C(=O)NOCC(=O)O` here?
The melting point was 145 to 154 °C.

For `Cc1ccc(C(C)n2[nH]c(C)cc2=O)cc1` (configuration not stated), which melting point is on record?
Its melting point is 144 to 146 °C.

Which melting point does the source give for `CON=C(C(=O)N(C)C)C(C)=NOCc1ccc(C)cc1` here?
The melting point was 68 to 69 °C.

Which melting point does the source give for `COC(=O)c1cccc(-c2cnc3c(c2)N(Cc2ccccc2)C(=O)CN3)c1` here?
Its melting point is 211 °C.

With `O=C(Nc1ccccc1)N1CCC(C2Oc3ccccc3Cn3cccc32)CC1` (configuration not stated) as the molecule, how does the melting point read?
The melting point was 167 to 170 °C.

For `CC1(C)CCC(C)(C)c2cc3cc(-c4cc(C(=O)O)cs4)ccc3cc21`, which melting point is on record?
The melting point was 223 to 225 °C.

With `CC(=O)N[C@@H](C)COc1ccc(-c2nc3ccc(OCC4CC4)cc3o2)nc1` as the molecule, how does the melting point read?
The melting point was 179 to 180 °C.

With `CC(C)C(S)C(=O)NC1(C(=O)NC(Cc2ccc(-c3ccccc3)nc2)C(=O)O)CCCC1` (configuration not stated) as the molecule, how does the melting point read?
Its melting point is 208 to 211 °C.

Which melting point does the source give for `CCCOc1ccc2c(c1)C(=O)c1cccc(OC)c1-2` here?
Its melting point is 96 to 97 °C.

For `CN1CCN(C2=Nc3ccncc3Oc3ccccc32)CC1`, which melting point is on record?
Its melting point is 124 to 125 °C.

Which melting point does the source give for `CN(C(=O)Nc1ccccc1CCc1cc(C(C)(C)C)c(O)c(C(C)(C)C)c1)C1CCN(Cc2ccccc2)CC1` here?
The melting point was 144 to 146 °C.

Which melting point does the source give for `O=C(On1nnc2ccc(Cl)cc21)c1ccccc1` here?
The melting point was 132 °C.

With `COC(=O)[C@@H]1CCC(c2cccc(O)c2)N1C(=O)CNC(=O)OCc1ccccc1` (some centres not stated) as the molecule, how does the melting point read?
Its melting point is 173 °C.

Which melting point does the source give for `CCCc1c(OCCCCCc2c(Cl)c(Cl)c(Cl)c(OC)c2OC)ccc(C(=O)O)c1O` here?
Its melting point is 148 to 150 °C.

Which melting point does the source give for `COc1cc2c(cc1Nc1ncc(Cl)c(N[C@@H]3CCCC[C@H]3NS(C)(=O)=O)n1)CCN(CCS(C)(=O)=O)CC2` here?
The melting point was 216 to 235 °C.

For `CN1CCN(Cc2c(O)c(O)c(O)c3c(=O)cc(-c4ccccc4)oc23)CC1`, which melting point is on record?
Its melting point is 280 to 282 °C.

With `N#Cc1ccc2c(c1)CCCC2(O)c1ccns1` (configuration not stated) as the molecule, how does the melting point read?
The melting point was 182 to 184 °C.

With `COC(=O)c1cc(=O)c2ccc(OCC(O)COc3cccc(O)c3C(C)=O)cc2[nH]1` (configuration not stated) as the molecule, how does the melting point read?
Its melting point is 192 to 194 °C.

With `NC(=O)c1cc(NCc2ccccc2)c([N+](=O)[O-])cc1[N+](=O)[O-]` as the molecule, how does the melting point read?
Its melting point is 143 to 146 °C.

For `Cc1ccc(CNC(=O)c2ccc3n2Cc2ccccc2N(C(=O)CSc2ccc(Br)cc2)C3)cc1`, which melting point is on record?
The melting point was 131 to 132 °C.

For `Cn1nc(-c2ncc(N)nc2-c2ccccc2)ccc1=O`, which melting point is on record?
The melting point was 202 to 204 °C.

With `CCCCCCCC(=O)OCOC1=C(C(=O)Nc2ccccn2)N(C)S(=O)(=O)c2ccccc21` as the molecule, how does the melting point read?
Its melting point is 98 to 99 °C.

With `Nc1nc(N)c2c(ccc3[nH]c(-c4ccccc4)cc32)n1` as the molecule, how does the melting point read?
The melting point was 322 to 323 °C.

Which melting point does the source give for `O=C(O)c1c(-c2ccccc2)nc2c(C(F)(F)F)cccc2c1O` here?
The melting point was 204 °C.

With `COc1ccc2nc(-n3nc(CCCO)cc3-c3ccc(Cl)cc3)sc2c1` as the molecule, how does the melting point read?
Its melting point is 123 to 125 °C.

For `CCCn1c(=O)n(-c2ccc3c(c2)OCO3)c2ncccc21`, which melting point is on record?
The melting point was 112 to 114 °C.

With `CC(C)(C)OC(=O)NC(Cc1ccc(OC(=O)OCc2ccccc2)cc1)C(=O)O` (configuration not stated) as the molecule, how does the melting point read?
Its melting point is 84 to 85 °C.

For `N=C(NCc1ccccn1)NN=Cc1c(Cl)cccc1Cl`, which melting point is on record?
Its melting point is 125 to 140 °C.

With `CN1C(=O)c2cccnc2Nc2ncccc21` as the molecule, how does the melting point read?
The melting point was 230 to 232 °C.

Which melting point does the source give for `CC(=O)OCC(=O)C1(O)CCC2C3CCC4=CC(=O)CCC4(C)C3CCC21C` (configuration not stated) here?
The melting point was 236 °C.

With `CCCCCC1CCC(c2ccc(-c3cc(F)c(C(F)(F)Oc4cc(F)c(C(F)(F)F)c(F)c4)c(F)c3)c(F)c2)OC1` (configuration not stated) as the molecule, how does the melting point read?
The melting point was 75 °C.

With `CCCc1[nH]c2cc(C(N)=O)ccc2c1C(=O)C1CCC1` as the molecule, how does the melting point read?
Its melting point is 253 to 255 °C.

Which melting point does the source give for `COc1ccc(S(=O)(=O)C2(C(=O)NO)CCN(C)CC2)cc1` here?
The melting point was 89 °C.

With `Cc1ccc([N+](=O)[O-])cc1C(=O)N(C)C` as the molecule, how does the melting point read?
Its melting point is 98 to 99 °C.

With `COc1cccc(CNC(=O)c2cc3c(=O)n(CCC(=O)c4ccccc4)c(=O)n(C)c3s2)c1` as the molecule, how does the melting point read?
Its melting point is 188 to 191 °C.

For `O=C1C=C(O)CC(c2cc(C3CCOC3)no2)C1` (configuration not stated), which melting point is on record?
The melting point was 142 to 144 °C.

For `Cc1nc2ccccc2n(-c2ccc(N)cc2)c1=O`, which melting point is on record?
Its melting point is 269 to 271 °C.

Which melting point does the source give for `CCOC(=O)c1cc2n(c1)CN(C(=O)OCC)c1ccc(Br)cc1-2` here?
The melting point was 161 to 163 °C.

Which melting point does the source give for `Cc1cc(C)nc(COCP(=O)(O)O)c1` here?
The melting point was 153 to 156 °C.

Which melting point does the source give for `CCCc1cc(-c2ccc(Cl)cc2)nc2c(I)cnn12` here?
Its melting point is 108 to 110 °C.

For `CSc1nc(Cl)c(-c2ccc(C)cc2)c(NS(=O)(=O)c2ccc(C(C)(C)C)cc2)n1`, which melting point is on record?
Its melting point is 178 to 182 °C.

With `CC(=O)NCC(=O)N1CC(=O)NC1(C)C` as the molecule, how does the melting point read?
Its melting point is 214 to 215 °C.

Which melting point does the source give for `CC(NC(N)=S)c1ccc(NS(C)(=O)=O)cc1` (configuration not stated) here?
The melting point was 77 °C.
